According to ChEMBL document CHEMBL1201862, “PubChem BioAssay data set” (2004):
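Five compound concentrations were applied to cells in 96-well plates for 48 hours; endpoints were derived by simple linear interpolation of the resulting dose-response curve. Abbreviation: GI50, concentration required for 50% inhibition of growth.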 Calls of active or inactive are those of the source. No stated cut-off is given here; in the data, active = GI50 up to about 1.1 µM and inactive = higher.

Assays:
Experiment in all cases: NCI tumour cell line growth inhibition, 48 h
[1] = tested on: RPMI-8226
[2] = tested on: RXF 393
[3] = tested on: SK-OV-3
[4] = tested on: SK-MEL-5
[5] = tested on: SN12C
[6] = tested on: CAKI-1
[7] = tested on: MOLT-4
[8] = tested on: M14
[9] = tested on: A549
[10] = tested on: MDA-MB-435
[11] = tested on: Malme-3M
[12] = tested on: OVCAR-5
[13] = tested on: DU-145
[14] = tested on: U-251
[15] = tested on: SW-620
[16] = tested on: TK-10
[17] = tested on: NCI-H226
[18] = tested on: SF-268
[19] = tested on: OVCAR-8
[20] = tested on: A498

Measured: GI50

Cc1ccc(O)c(C2=NNC(c3cccc(Br)c3)C2)c1 (stereo not drawn)
inactive: [1] 21.9 µM | [2] 56.4 µM | [3] 34.3 µM | [4] 71.3 µM | [5] 52.6 µM | [6] 27.9 µM | [7] 32.8 µM | [8] > 100 µM | [9] 44.5 µM | [10] 19.8 µM | [11] > 100 µM | [12] > 100 µM | [13] 81.3 µM | [14] 43.7 µM | [15] 67.1 µM | [16] > 100 µM | [17] 71.6 µM | [18] 71 µM | [19] 98.9 µM

CCOC(=O)CCC1(CCC(=O)OCC)CCCCCCCCC(CCC(=O)OCC)(CCC(=O)OCC)C(=O)C1=O
inactive: [3] > 100 µM | [4] > 100 µM | [5] > 100 µM | [6] > 100 µM | [8] > 100 µM | [20] > 100 µM | [9] > 100 µM | [10] > 100 µM | [11] > 100 µM | [12] > 100 µM | [13] > 100 µM | [14] > 100 µM | [15] > 100 µM | [16] > 100 µM | [17] > 100 µM | [18] > 100 µM | [19] > 100 µM

c1ccc2nc3c(nc2c1)sc1ccccc13
inactive: [1] > 100 µM | [3] 13.2 µM | [4] 30.9 µM | [5] 34 µM | [6] 9.25 µM | [7] 21.8 µM | [8] > 100 µM | [20] 27.4 µM | [9] 16.4 µM | [10] 94.4 µM | [11] 46.9 µM | [12] 60.1 µM | [13] 50 µM | [14] 16 µM | [15] 56 µM | [16] 19.3 µM | [17] 18.6 µM | [18] 20.7 µM

Cc1ccc(N(C)S(=O)(=O)c2ccc([N+](=O)[O-])cc2)cc1
inactive: [1] 59 µM | [2] > 100 µM | [3] > 100 µM | [4] > 10 µM | [5] > 100 µM | [6] > 100 µM | [7] 34.9 µM | [8] 49.8 µM | [9] > 100 µM | [10] 81.8 µM | [11] 38.2 µM | [12] > 100 µM | [13] > 100 µM | [14] > 100 µM | [15] > 100 µM | [16] > 100 µM | [17] 48.9 µM | [18] > 100 µM | [19] > 100 µM

COc1cccc(/N=C/c2cc3cc(Br)ccc3nc2Cl)c1
inactive: [1] 2.96 µM | [2] 13.7 µM | [3] 15.2 µM | [4] 36.1 µM | [5] 15.5 µM | [6] 7.06 µM | [7] 7.05 µM | [8] > 50 µM | [9] > 50 µM | [10] 11.1 µM | [11] > 50 µM | [12] > 50 µM | [13] 48.8 µM | [15] 11.8 µM | [17] 5.58 µM | [18] 20.1 µM | [19] 2.95 µM

N=C(N)NS(=O)(=O)c1ccc(Nc2c3ccccc3nc3ccc(C(=O)Nc4ccc(S(N)(=O)=O)cc4)cc23)cc1
inactive: [1] > 100 µM | [2] > 100 µM | [3] > 100 µM | [4] > 100 µM | [5] > 100 µM | [6] > 100 µM | [7] > 100 µM | [8] > 100 µM | [9] > 100 µM | [10] > 100 µM | [11] > 100 µM | [12] > 100 µM | [13] > 100 µM | [14] > 100 µM | [15] > 100 µM | [16] > 100 µM | [17] > 100 µM | [18] > 100 µM | [19] > 100 µM

O=C(c1ccc(Br)cc1)n1c2ccc(Br)cc2c2nc3ccccc3nc21
inactive: [1] > 100 µM | [2] > 100 µM | [4] > 100 µM | [5] > 100 µM | [6] > 100 µM | [7] 43.9 µM | [8] > 100 µM | [10] > 100 µM | [11] > 100 µM | [12] > 100 µM | [13] > 100 µM | [14] > 100 µM | [15] > 100 µM | [16] > 100 µM | [17] > 100 µM | [18] > 100 µM | [19] > 100 µM

COc1cc(NS(C)(=O)=O)ccc1Nc1ccnc2ccc3[nH]ccc3c12
inactive: [1] 15 µM | [4] 15.3 µM | [5] 14.4 µM | [6] 17.3 µM | [8] 16.4 µM | [20] 16.8 µM | [9] 18.3 µM | [10] 15.6 µM | [11] 14.1 µM | [12] 16.6 µM | [13] 14.4 µM | [14] 14 µM | [15] 13.3 µM | [16] 16.3 µM | [17] 18.9 µM | [18] 11 µM | [19] 13.6 µM

O=c1cc(N2CCOCC2)[nH]c(=O)n1-c1cccc(C(F)(F)F)c1
inactive: [3] > 100 µM | [4] > 100 µM | [5] > 100 µM | [6] > 100 µM | [7] > 100 µM | [8] > 100 µM | [20] > 100 µM | [9] > 100 µM | [10] > 100 µM | [11] > 100 µM | [12] > 100 µM | [13] > 100 µM | [14] 64.7 µM | [15] > 100 µM | [16] > 100 µM | [17] > 100 µM | [18] > 100 µM | [19] > 100 µM

COc1ccccc1C1Nn2c(nc3ccccc3c2=O)N1c1ccc(C)cc1 (stereo not drawn)
inactive: [1] 3.72 µM | [2] 10 µM | [3] 3.72 µM | [4] 7.45 µM | [5] 5.87 µM | [6] 7.83 µM | [7] 1.47 µM | [8] 10.5 µM | [9] 6.19 µM | [10] 8.2 µM | [11] 14.4 µM | [12] 10.4 µM | [13] 11 µM | [14] 2.04 µM | [15] 5.28 µM | [16] 6.41 µM | [17] 2.77 µM | [18] 6.85 µM | [19] 5.11 µM

Nc1cc(OCc2ccccc2)c(OCc2ccccc2)cc1C=O
inactive: [1] 27 µM | [3] 52.5 µM | [4] 24.7 µM | [5] 28.1 µM | [7] 18.6 µM | [20] 11.6 µM | [9] 23.8 µM | [10] 39.8 µM | [12] 55.2 µM | [13] 31.6 µM | [14] 28.4 µM | [15] 46.2 µM | [16] 15.3 µM | [17] 44 µM | [18] 65.2 µM | [19] 26.4 µM

CCOP(=O)(OCC)OC1CC(n2cc(C)c(=O)n(C)c2=O)OC1CO[Si](C)(C)C(C)(C)C (stereo not drawn)
inactive: [1] 25.2 µM | [2] 21.6 µM | [3] > 100 µM | [4] 58.9 µM | [5] 7.06 µM | [6] > 100 µM | [7] 37 µM | [8] > 100 µM | [9] 55.1 µM | [10] > 100 µM | [11] > 100 µM | [12] > 100 µM | [13] > 100 µM | [14] > 100 µM | [15] > 100 µM | [16] > 100 µM | [17] > 100 µM | [18] > 100 µM | [19] > 100 µM

COc1ccc2c(c1)/C(=C\c1c(C)nc3n1CCS3)C(=O)N2
inactive: [1] 34.5 µM | [2] 40.7 µM | [3] 19.7 µM | [4] 34 µM | [5] 26.5 µM | [6] 33.4 µM | [7] 32.4 µM | [8] 23 µM | [20] 17.8 µM | [9] 24.1 µM | [10] 3.12 µM | [12] 42.3 µM | [13] 39.1 µM | [14] 22.1 µM | [15] 9.79 µM | [16] 35.8 µM | [19] 37 µM

O=C(O)CO/N=C1/C(=C2/C(=O)Nc3ccccc32)Nc2ccccc21
inactive: [1] > 100 µM | [2] 19.5 µM | [3] 22.4 µM | [4] 24.1 µM | [5] 88.3 µM | [6] 25.8 µM | [7] 41.4 µM | [8] 41.1 µM | [20] 61.8 µM | [9] > 100 µM | [10] 37.9 µM | [11] 30.5 µM | [12] > 100 µM | [13] 44.3 µM | [14] 82.6 µM | [15] 62.5 µM | [16] > 100 µM | [18] 35.7 µM | [19] > 100 µM

CCCCCCCCCCCCCC(=O)OCC(CCS(=O)(=O)O[C@H]1CC[C@@]2(C)C(=CC[C@@H]3C2CC[C@]2(C)C(=O)CCC32)C1)OC(=O)CCCCCCCCCCCCC (stereo partly drawn)
inactive: [1] > 100 µM | [2] > 100 µM | [3] > 100 µM | [4] > 100 µM | [5] > 100 µM | [6] > 100 µM | [8] > 100 µM | [20] > 100 µM | [9] > 100 µM | [10] > 100 µM | [11] > 100 µM | [12] > 100 µM | [13] > 100 µM | [14] > 100 µM | [15] > 100 µM | [16] > 100 µM | [18] > 100 µM
